Measurements reported in US7939519B2, “Immunosuppresant compounds and compositions” (Novartis AG, priority 2003, dated 2011).

Experiments:
blood lymphocytes = test: Measurement of circulating lymphocytes (blood lymphocyte depletion) in mice; type: in vivo, Mice (C57bl/6); settings: Mus musculus, oral gavage, blood collected 6 and 24 hours after administration, read-out: ED50, effective dose required displaying 50% of blood lymphocyte depletion
Experimental: C. In Vivo: Screening Assays for Measurement of Blood Lymphocyte Depletion and Assessment of Heart Effect
Measurement of circulating lymphocytes: Compounds are dissolved in DMSO and diluted to obtain a final concentration of 4% DMSO (v/v, final concentration) and then further diluted in a constant volume of Tween80 25%/H2O, v/v. Tween80 25%/H2O (200 μl), 4% DMSO, and FTY720 (10 μg) are included as negative and positive controls, respectively. Mice (C57bl/6 male, 6-10 week-old) are administered 250-300 μL of compound solution orally by gavages under short isoflurane anesthesia.
Blood is collected from the retro-orbital sinus 6 and 24 hours after drug administration under short isoflurane anesthesia. Whole blood samples are subjected to hematology analysis. Peripheral lymphocyte counts are determined using an automated analyzer. Subpopulations of peripheral blood lymphocytes are stained by fluorochrome-conjugated specific antibodies and analyzed using a fluorescent activating cell sorter (Facscalibur). Two mice are used to assess the lymphocyte depletion activity of each compound screened. The result is an ED50, which is defined as the effective dose required displaying 50% of blood lymphocyte depletion.

human EDG-1 (S1P1) = biological target: T1, human EDG-1 (S1P1) (Homo sapiens, UniProt P21453); test: GTP [γ-35S] binding assay, membranes from CHO cells expressing human EDG-1; type: biochemical; settings: EDG-1 GTP [γ-35S] binding, CHO cell membranes
T1 construct: expressed in transfected cells
Experimental: A. In Vitro: GPCR Activation Assay Measuring GTP [γ-^35S] Binding to Membranes Prepared from Cho Cells Expressing Human EDG Receptors
EDG-1 (S1P1) GTP [γ-^35S] binding assay: Homogenized membranes are prepared from CHO cell clones stably expressing a human EDG-1 N-terminal c-myc tag. Cells are grown in suspension in two 850 cm^2 roller bottles for three or fours days before harvesting. The cells are centrifuged down, washed once with cold PBS, and resuspended in ≦20 ml of Buffer A (20 mM HEPES, pH 7.4, 10 mM EDTA, EDTA-free complete protease inhibitor cocktail [1 tablet/25 ml]). The cell suspension is homogenized on ice, using a Polytron homogenizer at 30000 rpm at three intervals of 15 seconds each. The homogenate is first centrifuged at 2000 rpm on a tabletop low speed centrifuge for 10 minutes. The supernatant, after passing through a cell strainer, is then re-centrifuged at 50,000×g for 25 minutes at 4° C. The pellet is resuspended into buffer B (15% glycerol, 20 mM HEPES, pH 7.4, 0.1 mM EDTA, EDTA-free complete protease inhibitor cocktail [1 tablet/10 ml]). Protein concentration of the prep is determined using the BCA Protein Assay kit (Pierce) using BSA as standard. The membranes are aliquoted and kept frozen at −80° C.
Solutions of test compounds ranging from 10 mM to 0.01 nM are prepared in DMSO. S1P is diluted in 4% BSA solution as positive controls. […]

T1 sequence (P21453 whole entry): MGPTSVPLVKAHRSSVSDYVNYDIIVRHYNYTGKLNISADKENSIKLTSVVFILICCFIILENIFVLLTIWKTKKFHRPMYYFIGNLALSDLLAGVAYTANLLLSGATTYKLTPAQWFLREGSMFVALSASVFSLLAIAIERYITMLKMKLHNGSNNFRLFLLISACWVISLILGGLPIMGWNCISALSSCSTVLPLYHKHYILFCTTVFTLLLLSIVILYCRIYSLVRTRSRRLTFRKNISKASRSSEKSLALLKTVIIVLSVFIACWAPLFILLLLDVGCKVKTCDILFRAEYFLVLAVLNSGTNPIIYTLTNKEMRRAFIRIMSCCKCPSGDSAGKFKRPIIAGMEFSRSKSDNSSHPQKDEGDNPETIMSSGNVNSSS

SMILES	ED50 (blood lymphocytes) [mg/kg]	EC50 (human EDG-1 (S1P1)) [nM]
CCc1cc(/C(C)=N/OCc2ccc(C3CCCCC3)c(C(F)(F)F)c2)ccc1CNCCC(=O)O [Example 2, 3-{4-[1-(4-Cyclohexyl-3-trifluoromethyl-benzyloxyimino)-ethyl]-2-ethyl-benzylamino}-propionic acid]	0.07	0.8
CCc1cc(/C(C)=N/OCc2ccc(C3CCCCC3)c(C(F)(F)F)c2)ccc1CN1CC(C(=O)O)C1 [Example 3, 1-{4-[1-(4-Cyclohexyl-3-trifluoromethyl-benzyloxyimino)-ethyl]-2-ethyl-benzyl}-azetidine-3-carboxylic acid]	0.1	0.2
